Laboratory results published in PubChem BioAssay AID2060904 (Molecular Pharmacology Branch, DTP, NCI, 2025).
Blank lines part the entries; values can stand above or below the compound they belong to.

Tested on: 349418-098-R-PDC complex spheroid viability
Assay: Anticancer human tumor 349418-098-R-PDC patient-derived lung adenocarcinoma cell line growth inhibition [RAS]
Conditions: for IC50: curve of first compound; for viability, T/C: stronger effect = lower value
How it was run: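 Agents were tested in combination matrices in half-log decrements from a top concentration at or near clinical Cmax (10 microM if undetermined). Targets were multi-cell spheroids of tumour lines plus HUVEC and MSC stromal cells.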

[1] = second compound 0.000949 µM, first compound 0.00316 µM
[2] = second compound 0.000949 µM, first compound 0.01 µM
[3] = second compound 0.000949 µM, first compound 0.0316 µM
[4] = second compound 0.000949 µM, first compound 0.1 µM
[5] = second compound 0.003 µM, first compound 0.00316 µM
[6] = second compound 0.003 µM, first compound 0.01 µM
[7] = second compound 0.003 µM, first compound 0.0316 µM
[8] = second compound 0.003 µM, first compound 0.1 µM
[9] = second compound 0.00949 µM, first compound 0.00316 µM
[10] = second compound 0.00949 µM, first compound 0.01 µM
[11] = second compound 0.00949 µM, first compound 0.0316 µM
[12] = second compound 0.00949 µM, first compound 0.1 µM
[13] = second compound 0.03 µM, first compound 0.00316 µM
[14] = second compound 0.03 µM, first compound 0.01 µM
[15] = second compound 0.03 µM, first compound 0.0316 µM
[16] = second compound 0.03 µM, first compound 0.1 µM
[17] = second compound 0.0949 µM, first compound 0.00316 µM
[18] = second compound 0.0949 µM, first compound 0.01 µM
[19] = second compound 0.0949 µM, first compound 0.0316 µM
[20] = second compound 0.0949 µM, first compound 0.1 µM
[21] = second compound 0.3 µM, first compound 0.00316 µM
[22] = second compound 0.3 µM, first compound 0.01 µM
[23] = second compound 0.3 µM, first compound 0.0316 µM
[24] = second compound 0.3 µM, first compound 0.1 µM
[25] = second compound 0.000949 µM, first compound 0.316 µM
[26] = second compound 0.000949 µM, first compound 1 µM
[27] = second compound 0.000949 µM, first compound 3.16 µM
[28] = second compound 0.000949 µM, first compound 10 µM
[29] = second compound 0.003 µM, first compound 0.316 µM
[30] = second compound 0.003 µM, first compound 1 µM
[31] = second compound 0.003 µM, first compound 3.16 µM
[32] = second compound 0.003 µM, first compound 10 µM
[33] = second compound 0.00949 µM, first compound 0.316 µM
[34] = second compound 0.00949 µM, first compound 1 µM
[35] = second compound 0.00949 µM, first compound 3.16 µM
[36] = second compound 0.00949 µM, first compound 10 µM
[37] = second compound 0.03 µM, first compound 0.316 µM
[38] = second compound 0.03 µM, first compound 1 µM
[39] = second compound 0.03 µM, first compound 3.16 µM
[40] = second compound 0.03 µM, first compound 10 µM
[41] = second compound 0.0949 µM, first compound 0.316 µM
[42] = second compound 0.0949 µM, first compound 1 µM
[43] = second compound 0.0949 µM, first compound 3.16 µM
[44] = second compound 0.0949 µM, first compound 10 µM
[45] = second compound 0.3 µM, first compound 0.316 µM
[46] = second compound 0.3 µM, first compound 1 µM
[47] = second compound 0.3 µM, first compound 3.16 µM
[48] = second compound 0.3 µM, first compound 10 µM
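Also: spheroids exposed to compound for seven days before viability readout.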

IC50 (second compound 0.000949 µM): 2.3 nM
IC50 (second compound 0.003 µM): 3.06 nM
IC50 (second compound 0.00949 µM): 2.79 nM
IC50 (second compound 0.03 µM): 3.57 nM
IC50 (second compound 0.0949 µM): 1.99 nM
IC50 (second compound 0.3 µM): 3.49 nM
Structure (SMILES): CC(C)n1nc(-c2ccc3oc(N)nc3c2)c2c(N)ncnc21 + CCn1c(-c2cc(N3CCN(C)CC3)cnc2C(C)OC)c2c3cc(ccc31)-c1csc(n1)CC(NC(=O)C1CC1C)C(=O)N1CCCC(N1)C(=O)OCC(C)(C)C2
viability, T/C (second compound 0.000949 µM, first compound 0.000316 µM): 97.9%
viability, T/C (second compound 0.000949 µM, first compound 0.001 µM): 75.8%
viability, T/C [1]: 37.8%
viability, T/C [2]: 22.4%
viability, T/C [3]: 8.76%
viability, T/C [4]: 7.18%
viability, T/C (second compound 0.003 µM, first compound 0.000316 µM): 87%
viability, T/C (second compound 0.003 µM, first compound 0.001 µM): 66.9%
viability, T/C [5]: 54.9%
viability, T/C [6]: 18.6%
viability, T/C [7]: 7.75%
viability, T/C [8]: 6.04%
viability, T/C (second compound 0.00949 µM, first compound 0.000316 µM): 106%
viability, T/C (second compound 0.00949 µM, first compound 0.001 µM): 84.4%
viability, T/C [9]: 46.3%
viability, T/C [10]: 16.6%
viability, T/C [11]: 7.24%
viability, T/C [12]: 5.27%
viability, T/C (second compound 0.03 µM, first compound 0.000316 µM): 100%
viability, T/C (second compound 0.03 µM, first compound 0.001 µM): 98.3%
viability, T/C [13]: 54.4%
viability, T/C [14]: 11.8%
viability, T/C [15]: 8.66%
viability, T/C [16]: 6.68%
viability, T/C (second compound 0.0949 µM, first compound 0.000316 µM): 111%
viability, T/C (second compound 0.0949 µM, first compound 0.001 µM): 67.4%
viability, T/C [17]: 39.3%
viability, T/C [18]: 18.7%
viability, T/C [19]: 7.91%
viability, T/C [20]: 5.64%
viability, T/C (second compound 0.3 µM, first compound 0.000316 µM): 94.7%
viability, T/C (second compound 0.3 µM, first compound 0.001 µM): 87.2%
viability, T/C [21]: 53.6%
viability, T/C [22]: 14.6%
viability, T/C [23]: 8.69%
viability, T/C [24]: 6.51%

IC50 (second compound 0.000949 µM): 63.6 nM
IC50 (second compound 0.003 µM): 73.1 nM
IC50 (second compound 0.00949 µM): 56.9 nM
IC50 (second compound 0.03 µM): 84.3 nM
IC50 (second compound 0.0949 µM): 83.6 nM
IC50 (second compound 0.3 µM): 78.1 nM
Structure (SMILES): CC1(O)CCCC1n1c(=O)c(C(F)F)cc2cnc(NC3CCN(S(C)(=O)=O)CC3)nc21 (stereo not drawn) + CCn1c(-c2cc(N3CCN(C)CC3)cnc2C(C)OC)c2c3cc(ccc31)-c1csc(n1)CC(NC(=O)C1CC1C)C(=O)N1CCCC(N1)C(=O)OCC(C)(C)C2
viability, T/C [3]: 71.3%
viability, T/C [4]: 34.3%
viability, T/C [25]: 21.8%
viability, T/C [26]: 21.3%
viability, T/C [27]: 22.5%
viability, T/C [28]: 3.27%
viability, T/C [7]: 73.1%
viability, T/C [8]: 38.1%
viability, T/C [29]: 25.3%
viability, T/C [30]: 20.1%
viability, T/C [31]: 21.5%
viability, T/C [32]: 2.54%
viability, T/C [11]: 60.6%
viability, T/C [12]: 41.4%
viability, T/C [33]: 22%
viability, T/C [34]: 23%
viability, T/C [35]: 19.6%
viability, T/C [36]: 2.74%
viability, T/C [15]: 70.8%
viability, T/C [16]: 48.1%
viability, T/C [37]: 23.6%
viability, T/C [38]: 22.9%
viability, T/C [39]: 19.2%
viability, T/C [40]: 2.55%
viability, T/C [19]: 83.8%
viability, T/C [20]: 42%
viability, T/C [41]: 23.3%
viability, T/C [42]: 23.9%
viability, T/C [43]: 21.4%
viability, T/C [44]: 2.75%
viability, T/C [23]: 78.2%
viability, T/C [24]: 40.7%
viability, T/C [45]: 22.5%
viability, T/C [46]: 22.3%
viability, T/C [47]: 20.5%
viability, T/C [48]: 2.63%

IC50 (second compound 0.000949 µM): 19.3 nM
IC50 (second compound 0.003 µM): 16.4 nM
IC50 (second compound 0.00949 µM): 17.1 nM
IC50 (second compound 0.03 µM): 21.8 nM
IC50 (second compound 0.0949 µM): 28.7 nM
IC50 (second compound 0.3 µM): 20.6 nM
Structure (SMILES): CCN1CCN(Cc2ccc(Nc3ncc(F)c(-c4cc(F)c5nc(C)n(C(C)C)c5c4)n3)nc2)CC1 + CCn1c(-c2cc(N3CCN(C)CC3)cnc2C(C)OC)c2c3cc(ccc31)-c1csc(n1)CC(NC(=O)C1CC1C)C(=O)N1CCCC(N1)C(=O)OCC(C)(C)C2
viability, T/C [1]: 96.6%
viability, T/C [2]: 68.5%
viability, T/C [3]: 33.4%
viability, T/C [4]: 28.7%
viability, T/C [25]: 20.4%
viability, T/C [26]: 15.3%
viability, T/C [5]: 93.4%
viability, T/C [6]: 59.7%
viability, T/C [7]: 38.5%
viability, T/C [8]: 19.3%
viability, T/C [29]: 20.3%
viability, T/C [30]: 14%
viability, T/C [9]: 103%
viability, T/C [10]: 63.4%
viability, T/C [11]: 35.3%
viability, T/C [12]: 18.5%
viability, T/C [33]: 20%
viability, T/C [34]: 12.7%
viability, T/C [13]: 104%
viability, T/C [14]: 85.5%
viability, T/C [15]: 33%
viability, T/C [16]: 19.5%
viability, T/C [37]: 23.5%
viability, T/C [38]: 15%
viability, T/C [17]: 92.7%
viability, T/C [18]: 54.4%
viability, T/C [19]: 58.4%
viability, T/C [20]: 33.1%
viability, T/C [41]: 23.1%
viability, T/C [42]: 12.8%
viability, T/C [21]: 88.1%
viability, T/C [22]: 60.1%
viability, T/C [23]: 42.8%
viability, T/C [24]: 32.3%
viability, T/C [45]: 22%
viability, T/C [46]: 14.6%

IC50 (second compound 0.000949 µM): 1340 nM
IC50 (second compound 0.003 µM): 1120 nM
IC50 (second compound 0.00949 µM): 976 nM
IC50 (second compound 0.03 µM): 806 nM
IC50 (second compound 0.0949 µM): 687 nM
IC50 (second compound 0.3 µM): 915 nM
Structure (SMILES): C[C@@H](NC(=O)c1ncnc(N)c1Cl)c1ncc(C(=O)Nc2cc(C(F)(F)F)c(Cl)cn2)s1 + CCn1c(-c2cc(N3CCN(C)CC3)cnc2C(C)OC)c2c3cc(ccc31)-c1csc(n1)CC(NC(=O)C1CC1C)C(=O)N1CCCC(N1)C(=O)OCC(C)(C)C2
viability, T/C [3]: 105%
viability, T/C [4]: 85.8%
viability, T/C [25]: 77.9%
viability, T/C [26]: 58.2%
viability, T/C [27]: 30.6%
viability, T/C [28]: 17.3%
viability, T/C [7]: 102%
viability, T/C [8]: 93.6%
viability, T/C [29]: 72.5%
viability, T/C [30]: 54.5%
viability, T/C [31]: 29.7%
viability, T/C [32]: 18.7%
viability, T/C [11]: 106%
viability, T/C [12]: 90.4%
viability, T/C [33]: 81.1%
viability, T/C [34]: 49%
viability, T/C [35]: 23.2%
viability, T/C [36]: 12.5%
viability, T/C [15]: 103%
viability, T/C [16]: 88%
viability, T/C [37]: 87.4%
viability, T/C [38]: 40%
viability, T/C [39]: 23.1%
viability, T/C [40]: 11.4%
viability, T/C [19]: 102%
viability, T/C [20]: 89.6%
viability, T/C [41]: 79.3%
viability, T/C [42]: 35%
viability, T/C [43]: 20.2%
viability, T/C [44]: 11.8%
viability, T/C [23]: 104%
viability, T/C [24]: 93.2%
viability, T/C [45]: 69.9%
viability, T/C [46]: 51.8%
viability, T/C [47]: 23.2%
viability, T/C [48]: 12.5%
